Assay results taken from the supplement of paper PMC11208160.

experiment: recombinant UMI read abundance after kanamycin selection (control-corrected) (log10(CPM+1)); higher = more efficient recombination; extreme values may be limits of the assay; sequences stand for … in AGTGCAGAGAAAATCGGCCAGTTTTCTCTGCCTGCAGTCCGCATGCCGTGGGACCCCTTGGGTTCTAACCTGTTGCCTAGATTTATGCAGCGGACTGCCTTTCTCCCAAAGTGATAAACCGG…AGGTTGGTTTCACT; site = the 11-nt donor
In short: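 Under IPTG (0.07 mM) plus kanamycin, or without selection, Escherichia coli carrying a UMI-tagged donor and donor-binding-loop pair library and a target plasmid for the IS621 bridge recombinase were plated in two replicates. Recombinant UMIs were PCR-amplified across the donor–target junction and sequenced. Counts were converted to CPM, averaged over replicates, scaled by control-derived factors and reported as log10(CPM+1).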
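Further: IS621 bridge recombinase in Escherichia coli cells against a fixed T5 target plasmid.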

Compared with “CCCCAGACATGGACCGGTTTTCCCGGTAATCCGTATTTGTA (site CCCCACACTTA)”, “CCCCAGACATGGACCGGTTTTCCCGGTAATCCGTATTTGTA (site CCCCAGACTTA)” is higher in “recombinant UMI read abundance (log10)” value: 0.0077 for the first, 0.691 for the second.

“CCCCAGACATGGACCGGTTTTCCCGGTAATCCGTATTTGTA (site CCCCATACTTA)” and “CCCCCCACATGGACCGGTTTTCCCGGTAATCCGTATTTGTA (site CCCCACACTTA)” are within 0.2 log units of each other in “recombinant UMI read abundance (log10)” value: 0.00999 for the first, 0.00745 for the second.

Going from “CCCCCCACATGGACCGGTTTTCCCGGTAATCCGTATTTGTA (site CCCCCCACTTA)” to “CCCCCCACATGGACCGGTTTTCCCGGTAATCCGTATTTGTA (site CCCCGCACTTA)”, the “recombinant UMI read abundance (log10)” value falls from 0.82 to 0.0126.

Compared with “CCCCCCACATGGACCGGTTTTCCCGGTAATCCGTATTTGTA (site CCCCTCACTTA)”, “CCCCGCACATGGACCGGTTTTCCCGGTAATCCGTATTTGTA (site CCCCACACTTA)” is higher in “recombinant UMI read abundance (log10)” value: 0.00445 for the first, 0.48 for the second.

Compared with “CCCCGCACATGGACCGGTTTTCCCGGTAATCCGTATTTGTA (site CCCCCCACTTA)”, “CCCCGCACATGGACCGGTTTTCCCGGTAATCCGTATTTGTA (site CCCCGCACTTA)” is higher in “recombinant UMI read abundance (log10)” value: 0.00659 for the first, 1.16 for the second.

“CCCCGCACATGGACCGGTTTTCCCGGTAATCCGTATTTGTA (site CCCCTCACTTA)” and “CCCCGCCCATGGACCGGTTTTCCCGGTAATCCGTATTTGTC (site CCCCGCCCTGA)” are within 0.2 log units of each other in “recombinant UMI read abundance (log10)” value: 0.00635 for the first, 0 for the second.

First: CCCCGTACATGGACCGGTTTTCCCGGTAATCCGTATTTGAT (site CCCCGTACTAT)
Second: CCCCGTACATGGACCGGTTTTCCCGGTAATCCGTATTTGCT (site CACCGTACTAG)
The “recombinant UMI read abundance (log10)” value of the first is higher: 1.45 for the first, 0.00449 for the second.

Compared with “CCCCGTACATGGACCGGTTTTCCCGGTAATCCGTATTTGCT (site CCCCGTACTAG)”, “CCCCGTACATGGACCGGTTTTCCCGGTAATCCGTATTTGCT (site CGCCGTACTAG)” is lower in “recombinant UMI read abundance (log10)” value: 1.56 for the first, 0 for the second.

First: CCCCGTACATGGACCGGTTTTCCCGGTAATCCGTATTTGCT (site CTCCGTACTAG)
Second: CCCCTCACATGGACCGGTTTTCCCGGTAATCCGTATTTGTA (site CCCCACACTTA)
The “recombinant UMI read abundance (log10)” value of the first is higher: 0.542 for the first, 0.0243 for the second.

Compared with “CCCCTCACATGGACCGGTTTTCCCGGTAATCCGTATTTGTA (site CCCCCCACTTA)”, “CCCCTCACATGGACCGGTTTTCCCGGTAATCCGTATTTGTA (site CCCCGCACTTA)” is lower in “recombinant UMI read abundance (log10)” value: 0.274 for the first, 0.0202 for the second.

Going from “CCCCTCACATGGACCGGTTTTCCCGGTAATCCGTATTTGTA (site CCCCTCACTTA)” to “CCCCTCGCATGGACCGGTTTTCCCGGTAATCCGTATTTGAA (site CCCCTCGCTTT)”, the “recombinant UMI read abundance (log10)” value falls from 1.15 to 0.801.

“CCCCTCTCATGGACCGGTTTTCCCGGTAATCCGTATTTGGG (site CCCATCTCTCC)” and “CCCCTCTCATGGACCGGTTTTCCCGGTAATCCGTATTTGGG (site CCCCTCTCTCC)” are within 0.2 log units of each other in “recombinant UMI read abundance (log10)” value: 0 for the first, 0.0198 for the second.

“CCCCTCTCATGGACCGGTTTTCCCGGTAATCCGTATTTGGG (site CCCGTCTCTCC)” and “CCCCTCTCATGGACCGGTTTTCCCGGTAATCCGTATTTGGG (site CCCTTCTCTCC)” are within 0.2 log units of each other in “recombinant UMI read abundance (log10)” value: 0.00587 for the first, 0 for the second.

Going from “CCCCTTACATGGACCGGTTTTCCCGGTAATCCGTATTTGGT (site CCCCTTACTAC)” to “CCCGACCCATGGACCGGTTTTCCCGGTAATCCGTATTTGAG (site CCCGACCCTCT)”, the “recombinant UMI read abundance (log10)” value falls from 0.238 to 0.0182.

Going from “CCCGAGTCATGGACCGGTTTTCCCGGTAATCCGTATTTGCC (site CCCGAGTCTGG)” to “CCCGGCCCATGGACCGGTTTTCCCGGTAATCCGTATTTGCA (site CCCGGACCTTG)”, the “recombinant UMI read abundance (log10)” value falls from 0.938 to 0.00734.

“CCCGGCCCATGGACCGGTTTTCCCGGTAATCCGTATTTGCA (site CCCGGCCCTTG)” and “CCCGGCCCATGGACCGGTTTTCCCGGTAATCCGTATTTGCA (site CCCGGGCCTTG)” are the same in “recombinant UMI read abundance (log10)” value: 0 for the first, 0 for the second.

“CCCGGCCCATGGACCGGTTTTCCCGGTAATCCGTATTTGCA (site CCCGGTCCTTG)” and “CCCGGTTCATGGACCGGTTTTCCCGGTAATCCGTATTTGCA (site CCCGGTACTTG)” are within 0.2 log units of each other in “recombinant UMI read abundance (log10)” value: 0.0145 for the first, 0 for the second.

“CCCGGTTCATGGACCGGTTTTCCCGGTAATCCGTATTTGCA (site CCCGGTCCTTG)” and “CCCGGTTCATGGACCGGTTTTCCCGGTAATCCGTATTTGCA (site CCCGGTGCTTG)” are within 0.2 log units of each other in “recombinant UMI read abundance (log10)” value: 0 for the first, 0.0148 for the second.

Going from “CCCGGTTCATGGACCGGTTTTCCCGGTAATCCGTATTTGCA (site CCCGGTTCTTG)” to “CCCGTACCATGGACCGGTTTTCCCGGTAATCCGTATTTGCT (site CCCGTACCTAG)”, the “recombinant UMI read abundance (log10)” value falls from 1.83 to 0.

First: CCCGTCGCATGGACCGGTTTTCCCGGTAATCCGTATTTGCC (site CCCGTCGCTGG)
Second: CCCGTCTCATGGACCGGTTTTCCCGGTAATCCGTATTTGGG (site CCCATCTCTCC)
The “recombinant UMI read abundance (log10)” value of the first is higher: 1.45 for the first, 0.0267 for the second.

“CCCGTCTCATGGACCGGTTTTCCCGGTAATCCGTATTTGGG (site CCCCTCTCTCC)” and “CCCGTCTCATGGACCGGTTTTCCCGGTAATCCGTATTTGGG (site CCCGTCTCTCC)” are within 0.2 log units of each other in “recombinant UMI read abundance (log10)” value: 0.0424 for the first, 0.0026 for the second.

“CCCGTCTCATGGACCGGTTTTCCCGGTAATCCGTATTTGGG (site CCCTTCTCTCC)” and “CCCTAACCATGGACCGGTTTTCCCGGTAATCCGTATTTGCT (site CCCTAACCTAG)” are within 0.2 log units of each other in “recombinant UMI read abundance (log10)” value: 0.018 for the first, 0 for the second.

Going from “CCCTACTCATGGACCGGTTTTCCCGGTAATCCGTATTTGGG (site CCCTACTCTCC)” to “CCCTACTCATGGACCGGTTTTCCCGGTAATCCGTATTTGGG (site CCCTCCTCTCC)”, the “recombinant UMI read abundance (log10)” value falls from 0.346 to 0.00345.

“CCCTACTCATGGACCGGTTTTCCCGGTAATCCGTATTTGGG (site CCCTGCTCTCC)” and “CCCTACTCATGGACCGGTTTTCCCGGTAATCCGTATTTGGG (site CCCTTCTCTCC)” are within 0.2 log units of each other in “recombinant UMI read abundance (log10)” value: 0.0112 for the first, 0.00875 for the second.

“CCCTAGCCATGGACCGGTTTTCCCGGTAATCCGTATTTGGC (site CCCTAGCCTGA)” and “CCCTAGCCATGGACCGGTTTTCCCGGTAATCCGTATTTGGC (site CCCTAGCCTGC)” are the same in “recombinant UMI read abundance (log10)” value: 0 for the first, 0 for the second.

“CCCTAGCCATGGACCGGTTTTCCCGGTAATCCGTATTTGGC (site CCCTAGCCTGG)” and “CCCTAGCCATGGACCGGTTTTCCCGGTAATCCGTATTTGGC (site CCCTAGCCTGT)” are the same in “recombinant UMI read abundance (log10)” value: 0 for the first, 0 for the second.

Going from “CCCTATCCATGGACCGGTTTTCCCGGTAATCCGTATTTGAC (site CCCTATCCTGT)” to “CCCTATTCATGGACCGGTTTTCCCGGTAATCCGTATTTGCT (site CCCTATTCTAG)”, the “recombinant UMI read abundance (log10)” value rises from 0 to 1.7.

First: CCCTCCTCATGGACCGGTTTTCCCGGTAATCCGTATTTGCC (site CACTCCTCTGG)
Second: CCCTCCTCATGGACCGGTTTTCCCGGTAATCCGTATTTGCC (site CCCTCCTCTGG)
The “recombinant UMI read abundance (log10)” value of the first is lower: 0.544 for the first, 2.25 for the second.

First: CCCTCCTCATGGACCGGTTTTCCCGGTAATCCGTATTTGCC (site CGCTCCTCTGG)
Second: CCCTCCTCATGGACCGGTTTTCCCGGTAATCCGTATTTGCC (site CTCTCCTCTGG)
The “recombinant UMI read abundance (log10)” value of the first is lower: 0 for the first, 0.448 for the second.

“CCCTCGCCATGGACCGGTTTTCCCGGTAATCCGTATTTGCC (site CCCTAGCCTGG)” and “CCCTCGCCATGGACCGGTTTTCCCGGTAATCCGTATTTGCC (site CCCTCGCCTGG)” are the same in “recombinant UMI read abundance (log10)” value: 0 for the first, 0 for the second.

“CCCTCGCCATGGACCGGTTTTCCCGGTAATCCGTATTTGCC (site CCCTGGCCTGG)” and “CCCTCGCCATGGACCGGTTTTCCCGGTAATCCGTATTTGCC (site CCCTTGCCTGG)” are within 0.2 log units of each other in “recombinant UMI read abundance (log10)” value: 0 for the first, 0.011 for the second.

“CCCTCGGCATGGACCGGTTTTCCCGGTAATCCGTATTTGCT (site CCCTCGGCTAG)” and “CCCTGTTCATGGACCGGTTTTCCCGGTAATCCGTATTTGGG (site CCCTGTTCTCC)” are within 0.2 log units of each other in “recombinant UMI read abundance (log10)” value: 0.0794 for the first, 0.00741 for the second.

“CCCTTCGCATGGACCGGTTTTCCCGGTAATCCGTATTTGGG (site CCCTTCACTCC)” and “CCCTTCGCATGGACCGGTTTTCCCGGTAATCCGTATTTGGG (site CCCTTCCCTCC)” are within 0.2 log units of each other in “recombinant UMI read abundance (log10)” value: 0.0167 for the first, 0 for the second.

“CCCTTCGCATGGACCGGTTTTCCCGGTAATCCGTATTTGGG (site CCCTTCGCTCC)” and “CCCTTCGCATGGACCGGTTTTCCCGGTAATCCGTATTTGGG (site CCCTTCTCTCC)” are within 0.2 log units of each other in “recombinant UMI read abundance (log10)” value: 0.0148 for the first, 0.0112 for the second.

First: CCGAAAGCATGGACCGGTTTTCCCGGTAATCCGTATTTGAT (site CCAAAAGCTAT)
Second: CCGAAAGCATGGACCGGTTTTCCCGGTAATCCGTATTTGAT (site CCCAAAGCTAT)
The “recombinant UMI read abundance (log10)” value of the first is higher: 0.501 for the first, 0 for the second.

Going from “CCGAAAGCATGGACCGGTTTTCCCGGTAATCCGTATTTGAT (site CCGAAAGCTAT)” to “CCGAAAGCATGGACCGGTTTTCCCGGTAATCCGTATTTGAT (site CCTAAAGCTAT)”, the “recombinant UMI read abundance (log10)” value falls from 0.975 to 0.0026.

“CCGAAGACATGGACCGGTTTTCCCGGTAATCCGTATTTGGC (site CCGAAGACTGC)” and “CCGAATCCATGGACCGGTTTTCCCGGTAATCCGTATTTGTA (site CCGAATCCTTA)” are the same in “recombinant UMI read abundance (log10)” value: 0 for the first, 0 for the second.

In the case of “CCGAATCCATGGACCGGTTTTCCCGGTAATCCGTATTTGTA (site CGGAATCCTAA)”, the “recombinant UMI read abundance (log10)” value is reported as 0.00532.
